Results from patent publication US10961216B2, “Small molecule modulators of the androgen receptor” (Massachusetts Institute of Technology, priority 2017, dated 2021).
≈ marks a conversion by molar mass, not a printed value. Like-named read-outs stand apart in the source and are kept apart here.

Legend:
[1] = test system: LNCaP cell line, an AR sensitive cell line; assay: cell viability assay (Cell-titer blue), LNCaP; type: cell-based; details: Homo sapiens, read-out: LNCaP CTB IC50
Procedure: (§1) All compounds were evaluated in a reporter gene assay (22Rv1 cell line lentiviral transduced with CMV-firefly luciferase) to monitor transcriptional effects and two cell viability assays (Cell-titer blue; PC3 cell line, an AR insensitive cell line, and LNCaP cell line, an AR sensitive cell line). The compounds were also monitored for aggregation.

[2] = Solubility; type: physicochemical
[3] = test system: 22Rv1 cell line lentiviral transduced with CMV-firefly luciferase; assay: reporter gene assay to monitor transcriptional effects; type: cell-based; details: Homo sapiens; 22Rv1, CMV-firefly luciferase
Procedure: as §1

[4] = test system: PC3 cell line, an AR insensitive cell line; assay: cell viability assay (Cell-titer blue), PC3; type: cell-based; details: Homo sapiens, PC-3, read-out: PC3 CTB IC50
Procedure: as §1

[5] = test system: LNCaP; assay: LNCaP reporter assay; type: cell-based; details: Homo sapiens
Text: (§2) To meet this need, compounds binding to AR-v7 were identified using the combination of a small molecule microarray (SMM) screen of 50,000 compounds, qPCR, and reporter assays. The SMM was screened against a functional AR-truncate composed of the NTD and DBD (exons 1-3) and therefore targeting these domains specifically. Candidate compounds were further evaluated in a series of assays designed to show specificity to AR-sensitive cell lines.
Compounds of the invention may also be identified via a reporter assay. Reporter assays are commonly used to study signaling pathways, gene expression and regulation at the transcriptional level, and the structure of regulatory elements. In general, a reporter assay comprises a regulatory element of interest (e.g. promoter DNA) along with a reporter gene (e.g., gene encoding a reporter protein) cloned into a vector and transfected into cells. In certain embodiments, a reporter is a protein. In certain embodiments, a reporter is a protein with an easily measureable activity. “Easily measureable activity” (or simply “activity”) can refer to any activity that can be measured through methods known in the art, such as fluorescence, enzymatic activities that generate fluorescent or luminescent products, or indirectly with antibodies. […]

[6] = biological target: T1, AR-v7 (Homo sapiens, UniProt P10275); assay: small molecule microarray (SMM) screen, binding to AR-v7; details: SMM screened against AR-truncate of NTD and DBD (exons 1-3), with qPCR and reporter assays
T1 construct: screened against a functional AR-truncate composed of the NTD and DBD (exons 1-3)
T1 sequence (P10275 1-628 limits assumed): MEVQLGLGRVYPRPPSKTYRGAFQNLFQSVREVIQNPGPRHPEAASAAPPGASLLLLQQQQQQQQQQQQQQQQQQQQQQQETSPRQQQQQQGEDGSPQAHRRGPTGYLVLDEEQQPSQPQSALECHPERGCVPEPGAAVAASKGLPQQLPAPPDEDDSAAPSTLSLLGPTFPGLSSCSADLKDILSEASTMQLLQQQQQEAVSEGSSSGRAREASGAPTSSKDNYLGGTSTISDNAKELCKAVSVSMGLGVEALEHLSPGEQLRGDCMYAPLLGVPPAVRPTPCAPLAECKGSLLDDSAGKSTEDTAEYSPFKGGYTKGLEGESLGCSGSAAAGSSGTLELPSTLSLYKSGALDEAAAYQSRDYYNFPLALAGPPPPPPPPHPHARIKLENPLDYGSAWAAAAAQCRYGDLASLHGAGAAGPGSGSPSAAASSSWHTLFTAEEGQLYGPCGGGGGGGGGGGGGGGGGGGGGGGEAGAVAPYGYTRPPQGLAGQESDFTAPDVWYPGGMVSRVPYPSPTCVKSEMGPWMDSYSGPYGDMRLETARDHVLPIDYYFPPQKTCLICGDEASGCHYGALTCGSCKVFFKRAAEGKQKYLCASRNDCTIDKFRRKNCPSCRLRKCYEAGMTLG
Text: as §2

| SMILES | IC50 [1] [µM] | Solubility ([2]; read-out: Solubility) [mM] | IC50 [4] [µM] | Solubility [2] [mM] | IC50 [5] [µM] | binding to AR-v7 [6] | IC50 [3] [µM] |
| --- | --- | --- | --- | --- | --- | --- | --- |
| O=C(NCCC1CC2C=CC1C2)c1cccc(OC2CCN(C(=O)C3CCCCC3)CC2)c1 (centres unmarked) [Compound I-4] | 24.3 |  | 33400 | 25 (≈ 11.3 mg/mL) |  |  | ~25.2 |
| O=C(NCCC1CC2C=CC1C2)c1cccc(OC2CCN(C(=O)Cc3ccccc3)CC2)c1 (centres unmarked) [Compound I-7] | 52.4 |  |  | 25 (≈ 11.5 mg/mL) |  |  | ~25.9 |
| Cc1c(C(=O)N(C)Cc2cccc3ncccc23)sc2ncnc(NCCC3CCCCC3)c12 [II-4] | 10.7 |  |  | 25 (≈ 11.8 mg/mL) |  |  | 9.63 |
| Cc1c(C(=O)N(C)Cc2cccc3ncccc23)sc2ncnc(NCCC3CC4C=CC3C4)c12 (centres unmarked) [II-6] | 14.1 |  | 1680 | 25 (≈ 12.1 mg/mL) |  |  | 8.29 |
| O=C(NCCC1CC2C=CC1C2)c1cccc(OC2CCN(C(=O)C3CCC3)CC2)c1 (centres unmarked) [Compound I-5] | 24.6 |  |  | 25 (≈ 10.6 mg/mL) |  |  | ~25.2 |
| O=C(NCCC1CC2C=CC1C2)c1cccc(OC2CCN(C(=O)c3cccnc3)CC2)c1 (centres unmarked) [Compound I-9] | 355 |  |  | 25 (≈ 11.1 mg/mL) |  |  |  |
| O=C(NCCC1CC2C=CC1C2)c1ccc(OC2CCN(C(=O)C3CC3)CC2)cc1 (centres unmarked) [Compound I-10] |  |  |  | 25 (≈ 10.2 mg/mL) |  |  |  |
| O=C(NCCC1CC2C=CC1C2)c1cccc(OC2CCN(C(=O)C(F)(F)F)CC2)c1 (centres unmarked) [Compound I-8] | 70.5 |  |  | 25 (≈ 10.9 mg/mL) |  |  | 21.9 |
| O=C(NCC1CC2C=CC1C2)c1cccc(OC2CCN(C(=O)C(F)(F)F)CC2)c1 (centres unmarked) [Compound I-17] | 18.4 |  |  | 25 (≈ 10.6 mg/mL) |  |  | 5.21 |
| C=CCCC(=O)N1CCC(Oc2cccc(C(=O)NCCC3CC4C=CC3C4)c2)CC1 (centres unmarked) [Compound I-35] | 26.5 |  |  | 25 (≈ 10.6 mg/mL) |  |  | 31.5 |
| O=C(NCCC1CC2C=CC1C2)c1cccc(OC2CCN(C(=O)C3CCCC3)CC2)c1 (centres unmarked) [Compound I-3] | 16.7 |  | 3560 | 25 (≈ 10.9 mg/mL) |  |  | ~24.6 |
| O=C(NCCC1CC2C=CC1C2)c1cccc(OC2CCN(C(=O)c3ccccc3)CC2)c1 (centres unmarked) [Compound I-6] | 8.2 |  |  | 25 (≈ 11.1 mg/mL) |  |  | ~24.9 |
| Cc1c(C(=O)N(C)Cc2cccc3ncccc23)sc2ncnc(NCC3CC4C=CC3CC4)c12 (centres unmarked) [II-5] | 8.09 |  | 782 | 25 (≈ 12.1 mg/mL) |  |  | 2.36 |
| O=C(NCC1CC2C=CC1CC2)c1cccc(OC2CCN(C(=O)C3CC3)CC2)c1 (centres unmarked) [Compound I-23] | 1020 |  |  | 25 (≈ 10.2 mg/mL) |  |  | ~25.5 |
| CN(Cc1cccc2ncccc12)C(=O)c1cccc(OC2CCN(C(=O)C3CC3)CC2)c1 [Compound I-24] | 1650 | 12.5 (≈ 5.54 mg/mL) |  |  |  |  | 20.4 |
| O=C(NCC1CC2C=CC1C2)c1cccc(OC2CCN(C(=O)C3CC3)CC2)c1 (centres unmarked) [Compound I-11] |  |  |  | 25 (≈ 9.86 mg/mL) |  |  | 28.3 |
| CCCCC(=O)N1CCC(Oc2cccc(C(=O)NCCC3CC4C=CC3C4)c2)CC1 (centres unmarked) [Compound I-34] | 28.8 | 12.5 (≈ 5.31 mg/mL) | 55.8 |  |  |  | ~27.9 |
| Cc1c(C(=O)N(C)Cc2cccc3ncccc23)sc2ncnc(NCC3C[C@@H]4C=C[C@H]3C4)c12 (stereo partly drawn) [Compound (2), 4-((((1R,4R)-bicyclo[2.2.1]hept-5-en-2-yl)methyl)amino)-N,5-dimethyl-N-(quinolin-5-ylmethyl)thieno[2,3-d]pyrimidine-6-carboxamide] |  |  |  |  | 6.86 | found to bind to AR-v7 |  |
| O=C(NCC1CC2C=CC1C2)c1cccc(OC2CCN(C(=O)C3CCC3)CC2)c1 (centres unmarked) [Compound I-18] | 41.2 |  |  | 25 (≈ 10.2 mg/mL) |  |  | ~24.4 |

Further lines, with some results ahead:

| IC50 [1] [µM] | Solubility ([2]; read-out: Solubility) [mM] | IC50 [4] [µM] | Solubility [2] [mM] | IC50 [5] [µM] | binding to AR-v7 [6] | SMILES | IC50 [3] [µM] |
| --- | --- | --- | --- | --- | --- | --- | --- |
| 3580 | 6.25 (≈ 3.17 mg/mL) |  |  |  |  | O=C(NCCC1CC2C=CC1C2)c1cccc(OC2CCN(C(=O)CCc3ccc(Cl)cc3)CC2)c1 (centres unmarked) [Compound I-22] |  |
| 28.5 | 12.5 (≈ 5.18 mg/mL) | 49.9 |  |  |  | O=C(Nc1ccc2ccccc2c1)c1cccc(OC2CCN(C(=O)C3CC3)CC2)c1 [Compound I-27] |  |
| 68.2 |  |  | 25 (≈ 11 mg/mL) |  |  | Cc1c(C(=O)Nc2ccc3ccccc3c2)sc2ncnc(NCC3CC4C=CC3C4)c12 (centres unmarked) [II-7] |  |
| 25.1 |  |  | 25 (≈ 10.2 mg/mL) |  |  | CC(C)c1ccc(NC(=O)c2cccc(OC3CCN(C(=O)C4CC4)CC3)c2)cc1 [Compound I-29] |  |
| 172 |  |  | 25 (≈ 10.9 mg/mL) |  |  | O=C(NCC12CC3CC(CC(C3)C1)C2)c1cccc(OC2CCN(C(=O)C3CC3)CC2)c1 [Compound I-13] |  |
| 222 |  | 341 | 25 (≈ 10.2 mg/mL) |  |  | O=C(NCCCc1ccccc1)c1cccc(OC2CCN(C(=O)C3CC3)CC2)c1 [Compound I-26] |  |
|  |  | 80.5 | 25 (≈ 11 mg/mL) |  |  | CC(=O)CCC(=O)N1CCC(Oc2cccc(C(=O)NCCC3CC4C=CC3C4)c2)CC1 (centres unmarked) [Compound I-36] |  |
| 388 |  |  | 25 (≈ 10.2 mg/mL) |  |  | O=C(NCC1CC2C=CC1CC2)c1ccc(OC2CCN(C(=O)C3CC3)CC2)cc1 (centres unmarked) [Compound I-25] |  |
| 493 |  | 3210 | 25 (≈ 12.5 mg/mL) |  |  | Cc1c(C(=O)N(C)Cc2cccc3ncccc23)sc2ncnc(NCC3C4C=CC(C4)C3CO)c12 (centres unmarked) [II-3] |  |
| 698 |  | 176 | 25 (≈ 9.97 mg/mL) |  |  | O=C(Nc1ccc(Cl)cc1)c1cccc(OC2CCN(C(=O)C3CC3)CC2)c1 [Compound I-28] |  |
|  |  |  | 25 (≈ 11.3 mg/mL) |  |  | CC(NC(=O)c1cccc(OC2CCN(C(=O)C3CC3)CC2)c1)C12CC3CC(CC(C3)C1)C2 (centres unmarked) [Compound I-14] |  |
|  |  |  | 25 (≈ 6.43 mg/mL) |  |  | O=C(NCC1CC2C=CC1CC2)c1cccc(O)c1 (centres unmarked) [Compound I-20] |  |
| 79.2 |  | 101 | 25 (≈ 9.96 mg/mL) |  |  | O=C(NCCC1CCCCC1)c1cccc(OC2CCN(C(=O)C3CC3)CC2)c1 [Compound I-32] |  |
|  |  |  | 25 (≈ 7.48 mg/mL) |  |  | CC(=O)Oc1cccc(C(=O)NCC2CC3C=CC2CC3)c1 (centres unmarked) [Compound I-19] |  |
| 136 |  |  | 25 (≈ 9.11 mg/mL) |  |  | O=C(Nc1ccccc1)c1cccc(OC2CCN(C(=O)C3CC3)CC2)c1 [Compound I-30] |  |
| 397 |  | 93.9 | 25 (≈ 10.9 mg/mL) |  |  | O=C(NCC1CC2C=CC1CC2)c1cccc(OC2CCN(C(=O)C(F)(F)F)CC2)c1 (centres unmarked) [Compound I-39] |  |
| 120 |  | 90.3 | 25 (≈ 11.1 mg/mL) |  |  | O=C(NCC1CC2C=CC1CC2)c1cccc(OC2CCN(C(=O)c3cccnc3)CC2)c1 (centres unmarked) [Compound I-40] |  |
|  | 12.5 (≈ 5.83 mg/mL) | 1890 |  |  |  | CCOC(=O)C1C2C=CC(C2)C1CNC(=O)c1ccc(OC2CCN(C(=O)C3CC3)CC2)cc1 (centres unmarked) [Compound I-38] |  |
|  |  | 1150 | 25 (≈ 10.6 mg/mL) |  |  | O=C(NCC1C2C=CC(C2)C1CO)c1ccc(OC2CCN(C(=O)C3CC3)CC2)cc1 (centres unmarked) [Compound I-37] |  |
| 342 |  |  | 25 (≈ 11.7 mg/mL) |  |  | CCCC(CCC)C(=O)N1CCC(Oc2cccc(C(=O)NCCC3CC4C=CC3C4)c2)CC1 (centres unmarked) [Compound I-21] |  |
| 62.6 |  | 166 | 25 (≈ 9.46 mg/mL) |  |  | O=C(NCc1ccccc1)c1cccc(OC2CCN(C(=O)C3CC3)CC2)c1 [Compound I-31] |  |
